The results in this text go back to US6410792B1, “Amide derivatives and methods for using the same as selective neuropeptide Y receptor antagonists” (Bayer Corporation, priority 1997, dated 2002).

Assay [1] deals with T1, Y2 receptor (Homo sapiens, UniProt P49146).
T1 sequence (P49146 1-381): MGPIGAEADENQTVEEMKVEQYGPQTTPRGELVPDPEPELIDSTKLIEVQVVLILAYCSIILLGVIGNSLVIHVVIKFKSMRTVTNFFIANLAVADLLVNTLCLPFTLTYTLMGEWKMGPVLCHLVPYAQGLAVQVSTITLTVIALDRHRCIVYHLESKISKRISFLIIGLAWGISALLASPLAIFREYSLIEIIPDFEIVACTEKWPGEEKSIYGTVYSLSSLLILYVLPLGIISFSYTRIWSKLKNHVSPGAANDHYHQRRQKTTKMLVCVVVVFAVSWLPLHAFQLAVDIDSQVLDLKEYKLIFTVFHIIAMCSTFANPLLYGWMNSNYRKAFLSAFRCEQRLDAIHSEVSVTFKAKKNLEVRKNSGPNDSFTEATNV
The experiment in a line: Y2 receptor binding assay ([125I]PYY, membrane protein). The note with it: membrane protein, read-out: hNPY2 IC50. As to the method:
B. Human Y2 and Y4/PP1 Receptor Binding Assays
Binding assays were performed on GF/C Millipore 96-well plates pretreated with 0.02% polyethylenimine. The binding buffer for rat Y2 binding is Krebs-Ringer bicarbonate (pH 7.4) containing 0.01% BSA and 0.005% bacitracin. Samples consist of membrane protein, 25 pM [1251]PYY and drug dilution. Nonspecific binding is defined by 1 μM NPY. The binding buffer for human Y4/PP1 binding consists of 137 mM NaCl, 5.4 mM KCl, 0.44 mM KH2PO4, 1.26 mM CaCl2, 0.81 mM MgSO4, 20 mM HEPES, 1 mM dithiothreitol, 0.1% bacitracin, 100 mg/l streptomycin sulfate, 1 mg/l aprotinin, 10 mg/ml soybean trypsin inhibitor and 0.3% BSA, pH 7.4. Samples consist of membrane protein, 50 pM human [1251]human PP (hPP: NEN DuPont, Boston, Mass.) and drug dilution. 1 μM hPP is used to define nonspecific binding.
After a 2 hour incubation at room temperature with constant mixing, the samples are aspirated on a vacuum manifold, and rinsed with ice-cold binding buffer. The amount of radioactivity in each well is quantitated with either gamma counting or liquid scintillation.

Assay [2] deals with T2, Human NPY5 receptor (Homo sapiens, UniProt Q15761).
T2 sequence (Q15761 1-445): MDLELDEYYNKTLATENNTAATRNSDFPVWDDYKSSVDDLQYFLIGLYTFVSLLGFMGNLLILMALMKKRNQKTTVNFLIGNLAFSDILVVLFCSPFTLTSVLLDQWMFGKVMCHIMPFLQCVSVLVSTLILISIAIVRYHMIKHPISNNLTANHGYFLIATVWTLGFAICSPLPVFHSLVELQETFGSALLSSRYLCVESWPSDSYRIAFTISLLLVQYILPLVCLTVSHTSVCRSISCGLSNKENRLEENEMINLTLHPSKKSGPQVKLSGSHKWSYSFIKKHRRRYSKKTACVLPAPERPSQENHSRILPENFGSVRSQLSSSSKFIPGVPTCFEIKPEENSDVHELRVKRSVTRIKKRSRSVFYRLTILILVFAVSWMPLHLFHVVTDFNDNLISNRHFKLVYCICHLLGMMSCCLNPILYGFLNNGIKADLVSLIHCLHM
The experiment in a line: Human NPY5 receptor binding assay ([125I]PYY, membrane protein). Conditions: [125I]PYY binding, read-out: hNPY5 IC50. The method, then:
C. Human and Rat NPY5 Receptor Binding Assays
Binding assays are performed on GF/C Millipore 96well plates pretreated with 0.02% polyethylenimine. The binding buffer is 25 mM Tris, 120 mM NaCl, 5 mM KCl, 1.2 mM KH2PO4, 2.5 mM CaCl2, 1.2 mM MgSO4, 0.1% BSA and 0.5 mg/ml bacitracin, pH 7.4. Samples consist of membrane protein, 75-100 pM [125I]PYY (porcine, NEN-DuPont) and drug dilution. Nonspecific binding is defined by 1 μM PYY. After a 2 hour incubation at room temperature with constant mixing, the samples are aspirated on a vacuum manifold, and rinsed with ice-cold binding buffer. The amount of radioactivity in each well is quantitated with either gamma counting or liquid scintillation.

What is called pIC50 is the negative decadic logarithm of the IC50, by convention in mol/L.

The structures appear in SMILES notation. pIC50: −log10 of the molar value. Structures can show the parent of a compound that is named as a salt. Where two headings read alike, the source gives them in different places.

For `O=C(CN1CCC(CCCC2CCN(CCO)CC2)CC1)Nc1ccc(C(=O)c2ccccc2)cc1` [Compound 67, N-(4-Benzoyl-phenyl)-2-(4-{3-[1-(2-hydroxy-ethyl)-piperidin-4-yl]-propyl}-piperidin-1-yl)-acetamide], the results for the negative logarithm of the IC50 (pIC50) in assay [1] ([125I]PYY binding) and in assay [2] were below 5.30 and below 5.00, respectively.

In the case of `CC1CCN(CC(=O)Nc2ccc(C(=O)c3ccccc3)cc2)CC1` [Compound 50, N-(4-Benzoyl-phenyl)-2-(4-methyl-piperidin-1-yl)-acetamide], the figures for the pIC50 in assay [1] ([125I]PYY binding) and in assay [2] were below 5.30 and 5.66, respectively.

Turning to `O=C(CNc1nc[nH]n1)Nc1ccc(C(=O)c2ccccc2)cc1` [Compound 137, N-(4-Benzoyl-phenyl)-2-(1H-[1,2,4]triazol-3-ylamino)-acetamide], the pIC50 in assay [2] was below 5.30.

With `O=C(CN1CCCC1CO)Nc1ccc(C(=O)c2ccccc2)cc1` (centres unmarked) [Compound 118, N-(4-Benzoyl-phenyl)-2-(2-hydroxymethyl-pyrrolidin-1-yl)-acetamide], the figures for the pIC50 in assay [1] ([125I]PYY binding) and in assay [2] were below 5.30 and 5.70, respectively.

Turning to `COc1ccc(CCNCC(=O)Nc2ccc(C(=O)c3ccccc3)cc2)cc1` [Compound 155], the pIC50 in assay [2] was below 5.30.

Regarding `O=C(CN1CCN(c2ccc(Cl)cc2)CC1)Nc1ccc(C2CCCCC2)cc1` [Compound 4, 2-[4-(4-Chloro-phenyl)-piperazin-1-yl]-N-(4-cyclohexyl-phenyl)-acetamide], the negative logarithm of the IC50 (pIC50) in assay [1] ([125I]PYY binding) was below 5.30.

In the case of `O=C(CNCCc1c[nH]c2ccccc12)Nc1ccc(C2CCCCC2)cc1` [Compound 143, N-(4-Cyclohexyl-phenyl)-2-[2-(1H-indol-3-yl)-ethylamino]-acetamide], the pIC50 in assay [2] is below 5.30.

As for `O=C(CNCCCc1ccccc1)Nc1ccc(C(=O)c2ccccc2)cc1` [Compound 151, N-(4-Benzoyl-phenyl)-2-(3-phenyl-propylamino)-acetamide], the negative logarithm of the IC50 (pIC50) in assay [2] was below 5.30.

On to `O=C(CNCCc1c[nH]cn1)Nc1ccc(C2CCCCC2)cc1` [Compound 142, N-(4-Cyclohexyl-phenyl)-2-[2-(1H-imidazol-4-yl)-ethylamino]-acetamide], for which, in assay [2], the pIC50 was below 5.30.

`COc1ccccc1CNCC(=O)Nc1ccc(C2CCCCC2)cc1` [Compound 149, N-(4-Cyclohexyl-phenyl)-2-(2-methoxy-benzylamino)-acetamide]: the pIC50 in assay [2] was below 5.30.

Consider `O=C(CN1CCCC1)Nc1ccc(C(=O)c2ccccc2)cc1` [Compound 136, N-(4-Benzoyl-phenyl)-2-pyrrolidin-1-yl-acetamide], for which the negative logarithm of the IC50 (pIC50) in assay [2] was below 5.30.

Consider `O=C(CNCCCc1ccccc1)Nc1ccc(C2CCCCC2)cc1` [Compound 141, N-(4-Cyclohexyl-phenyl)-2-(3-phenyl-propylamino)-acetamide], for which the pIC50 in assay [2] was below 5.30.

Regarding `O=C(CNC(c1ccccc1)c1ccccc1)Nc1ccc(C2CCCCC2)cc1` [Compound 131, 2-(Benzhydryl-amino)-N-(4-cyclohexyl-phenyl)-acetamide], the pIC50 in assay [2] is below 5.30.

Take `O=C(CNCCNc1ccc([N+](=O)[O-])cn1)Nc1ccc(C2CCCCC2)cc1` [Compound 147, N-(4-Cyclohexyl-phenyl)-2-[2-(5-nitro-pyridin-2-ylamino)-ethylamino]-acetamide]: in assay [2], the pIC50 was below 5.30.

Regarding `NCCNCC1CCN(CC(=O)Nc2ccc(C(=O)c3ccccc3)cc2)CC1` [Compound 134, 2-{4-[(2-Amino-ethylamino)-methyl]-piperidin-1-yl}-N-(4-benzoyl-phenyl)-acetamide], the negative logarithm of the IC50 (pIC50) in assay [2] was below 5.30.

Turning to `O=C(CN1CCC(n2c(=O)[nH]c3ccccc32)CC1)NC(c1ccccc1)c1ccccc1` [Compound 322, N-Benzhydryl-2-[4-(2-oxo-2,3-dihydro-benzoimidazol-1-yl)-piperidin-1-yl]-acetamide; hydrochloride], in assay [1] ([125I]PYY), the pIC50 was below 5.30.

As for `O=C(CN1CCCC1C(=O)O)Nc1ccc(C(=O)c2ccccc2)cc1` (centres unmarked) [Compound 124, 1-[(4-Benzoyl-phenylcarbamoyl)-methyl]-pyrrolidine-2-carboxylic acid], the pIC50 in assay [1] ([125I]PYY binding) is below 5.30.

With `O=C(CNCCNc1ccc([N+](=O)[O-])cn1)Nc1ccc(C(=O)c2ccccc2)cc1` [Compound 157, N-(4-Benzoyl-phenyl)-2-[2-(5-nitro-pyridin-2-ylamino)-ethylamino]-acetamide], the negative logarithm of the IC50 (pIC50) in assay [2] is below 5.30.

Regarding `Cn1cccc1CCNCC(=O)Nc1ccc(C(=O)c2ccccc2)cc1` [Compound 139, N-(4-Benzoyl-phenyl)-2-[2-(1-methyl-1H-pyrrol-2-yl)-ethylamino]-acetamide], the pIC50 in assay [2] was below 5.30.

As for `O=C(CNCCN1CCNCC1)Nc1ccc(C(=O)c2ccccc2)cc1` [Compound 156, N-(4-Benzoyl-phenyl)-2-(2-piperazin-1-yl-ethylamino)-acetamide], the pIC50 in assay [2] was below 5.30.

With `COc1ccc(CCNCC(=O)Nc2ccc(C3CCCCC3)cc2)cc1` [Compound 145, N-(4-Cyclohexyl-phenyl)-2-[2-(4-methoxy-phenyl)-ethylamino]-acetamide], the pIC50 in assay [2] is below 5.30.

Consider `COc1ccc2[nH]cc(CCNCC(=O)Nc3ccc(C4CCCCC4)cc3)c2c1` [Compound 144, N-(4-Cyclohexyl-phenyl)-2-[2-(5-methoxy-1H-indol-3-yl)-ethylamino]-acetamide], for which the pIC50 in assay [2] was below 5.30.

For the compound `CN(C)C1(C(N)=O)CCN(CC(=O)Nc2ccc(C3CCCCC3)cc2)CC1` [Compound 65, 1-[(4-Cyclohexyl-phenylcarbamoyl)-methyl]-4-dimethylamino-piperidine-4-carboxylic acid amide], the negative logarithm of the IC50 (pIC50) in assay [2] is 6.16.

For the compound `O=C(CNCc1ccc2c(c1)OCO2)Nc1ccc(C(=O)c2ccccc2)cc1` [Compound 158, 2-[(Benzo[1,3]dioxol-5-ylmethyl)-amino]-N-(4-benzoyl-phenyl)-acetamide], the negative-log IC50 (pIC50) in assay [2] was below 5.30.

For the compound `O=C(CN1C[C@H](O)C[C@H]1C(=O)O)Nc1ccc(C2CCCCC2)cc1` [Compound 12, (4R,2S)-1-[(4-Cyclohexyl-phenylcarbamoyl)-methyl]-4-hydroxy-pyrrolidine-2-carboxylic acid], in assay [2], the negative logarithm of the IC50 (pIC50) is 5.05.

Turning to `O=C(CNCCN1CCNCC1)Nc1ccc(C2CCCCC2)cc1` [Compound 146, N-(4-Cyclohexyl-phenyl)-2-(2-piperazin-1-yl-ethylamino)-acetamide], the pIC50 in assay [2] is below 5.30.

As for `O=C(CNCCc1c[nH]c2ccccc12)Nc1ccc(C(=O)c2ccccc2)cc1` [Compound 153, N-(4-Benzoyl-phenyl)-2-[2-(1H-indo-3-yl)-ethylamino]-acetamide], the pIC50 in assay [2] is below 5.30.

`CCCCCCCCCCNCC(=O)Nc1ccc(C(=O)c2ccccc2)cc1` [Compound 150, N-(4-Benzoyl-phenyl)-2-decylamino-acetamide]: the pIC50 in assay [2] was below 5.30.

As for `CCCCCCCCCCNCC(=O)Nc1ccc(C2CCCCC2)cc1` [Compound 140, N-(4-Cyclohexyl-phenyl)-2-decylamino-acetamide], in assay [2], the negative-log IC50 (pIC50) was below 5.30.

For the compound `COc1ccccc1CNCC(=O)Nc1ccc(C(=O)c2ccccc2)cc1` [Compound 159, N-(4-Benzoyl-phenyl)-2-(2-methoxy-benzylamino)-acetamide], the pIC50 in assay [2] was below 5.30.

For the compound `O=C(CNCCc1c[nH]cn1)Nc1ccc(C(=O)c2ccccc2)cc1` [Compound 152, N-(4-Benzoyl-phenyl)-2-[2-(1H-imidazol-4-yl)-ethylamino]-acetamide], the negative logarithm of the IC50 (pIC50) in assay [2] was below 5.30.

Turning to `O=C(CNC(c1ccccc1)c1ccccc1)Nc1ccc(C(=O)c2ccccc2)cc1` [Compound 138, 2-(Benzhydryl-amino)-N-(4-benzoyl-phenyl)-acetamide], the negative-log IC50 (pIC50) in assay [2] is below 5.30.
